Reference: PubChem BioAssay AID1259411 (Chemical Carcinogenesis Research Information System (CCRIS), 2018)
The source made the active and inactive calls. The rule behind the calls is not given here.

Tested on: rodent carcinogenicity bioassays, tumor incidence
Experiment: CCRIS carcinogenicity studies
Procedure, shortened: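 NCI-built, expert-reviewed records of carcinogenicity and related test outcomes (mutagenicity, tumor promotion/inhibition) compiled from published and report sources, historical span 1985-2011, not updated.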

Measured: carcinogen call

[O]=[Cd]
active: Species: RAT, Strain/Sex: FEMALE, Route: SUBCUTANEOUS, Dose: 25 MG ONCE, Tumor Site: Type of Lesion: INJECTION SITE: SARCOMA active; positive | Species: RAT, Strain/Sex: FEMALE, Route: SUBCUTANEOUS, Dose: 25 MG, SINGLE DOSE, Tumor Site: Type of Lesion: INJECTION SITE active; positive | Species: RAT, Strain/Sex: WISTAR/FEMALE, Route: INHALATION, Dose: 0, 30 UG/M3 CADMIUM OXIDE DUST 22 HR/D 7 D/WK FOR 18 MO (STUDY DURATION: 31 MO), Tumor Site: Type of Lesion: LUNG: TUMOR active; positive | Species: RAT, Strain/Sex: WISTAR/FEMALE, Route: INHALATION, Dose: 0, 30 UG/M3 DUST 22 HR/D 7 D/WK FOR 18 MO (STUDY DURATION: 31 MO), Tumor Site: Type of Lesion: LUNG: ALVEOLAR/BRONCHIOLAR ADENOMA, ADENOCARCINOMA, SQUAMOUS CELL CARCINOMA active; positive | Species: RAT, Strain/Sex: WISTAR/FEMALE, Route: INHALATION, Dose: 0, 30 UG/M3 OF CADMIUM OXIDE DUST 22 HR/D 7 D/WK FOR 18 MO (STUDY DURATION: 31 MO), Tumor Site: Type of Lesion: LUNG: ALVEOLAR/BRONCHIOLAR ADENOMA, ADENOCARCINOMA, SQUAMOUS CELL CARCINOMA active; positive | Species: RAT, Strain/Sex: WISTAR/FEMALE, Route: INHALATION, Dose: 0, 90 UG/M3 CADMIUM OXIDE DUST 22 HR/D 7 D/WK FOR 4 MO (STUDY DURATION: 31 MO), Tumor Site: Type of Lesion: LUNG: TUMOR active; positive | Species: RAT, Strain/Sex: WISTAR/FEMALE, Route: INHALATION, Dose: 0, 90 UG/M3 CADMIUM OXIDE DUST DISCONTINOUS EXPOSURE FOR 40 HR/WK FOR 6 MO (STUDY DURATION: 31 MO), Tumor Site: Type of Lesion: LUNG: TUMOR active; positive | Species: RAT, Strain/Sex: WISTAR/FEMALE, Route: INHALATION, Dose: 0, 90 UG/M3 DUST 8 HR/D 5 D/WK FOR 6 MO (STUDY DURATION: 31 MO), Tumor Site: Type of Lesion: LUNG: ADENOCARCINOMA, SQUAMOUS CELL CARCINOMA active; positive | Species: RAT, Strain/Sex: WISTAR/FEMALE, Route: INHALATION, Dose: 0, 90 UG/M3 DUST 22 HR/D 7 D/WK FOR 11 MO (STUDY DURATION: 31 MO), Tumor Site: Type of Lesion: LUNG: ALVEOLAR/BRONCHIOLAR ADENOMA, ADENOCARCINOMA, SQUAMOUS CELL CARCINOMA active; positive | Species: RAT, Strain/Sex: WISTAR/FEMALE, Route: INHALATION, Dose: 0, 90 UG/M3 OF CADMIUM OXIDE DUST 22 HR/D 7 D/WK FOR 11 MO (STUDY DURATION: 31 MO), Tumor Site: Type of Lesion: LUNG: ALVEOLAR/BRONCHIOLAR ADENOMA, ADENOCARCINOMA, SQUAMOUS CELL CARCINOMA active; positive | Species: RAT, Strain/Sex: WISTAR/MALE, Route: INHALATION, Dose: 0, 30 UG/M3 CADMIUM OXIDE DUST 22 HR/D 7 D/WK FOR 18 MO (STUDY DURATION: 31 MO), Tumor Site: Type of Lesion: LUNG: ADENOMA OR ADENOCARCINOMA OR SQUAMOUS CELL TUMOR OR ADENOSQUAMOUS CARCINOMA active; positive | Species: RAT, Strain/Sex: WISTAR/MALE, Route: INHALATION, Dose: 0, 30 UG/M3 CADMIUM OXIDE DUST 22 HR/D 7 D/WK FOR 18 MO (STUDY DURATION: 31 MO), Tumor Site: Type of Lesion: LUNG: TUMOR active; positive | Species: RAT, Strain/Sex: WISTAR/MALE, Route: INHALATION, Dose: 0, 30 UG/M3 CADMIUM OXIDE DUST 22 HR/D 7 D/WK FOR 18 MO ADMINISTERED TO RATS MAINTAINED ON ZINC REDUCED (24 PPM) DIET (S, Tumor Site: Type of Lesion: LUNG: TUMOR active; positive | Species: RAT, Strain/Sex: WISTAR/MALE, Route: INHALATION, Dose: 0, 30 UG/M3 CADMIUM OXIDE FUME 22 HR/D 7 D/WK FOR 18 MO (STUDY DURATION: 31 MO), Tumor Site: Type of Lesion: LUNG: TUMOR active; positive | Species: RAT, Strain/Sex: WISTAR/MALE, Route: INHALATION, Dose: 0, 30 UG/M3 DUST 22 HR/D 7 D/WK FOR 18 MO (STUDY DURATION: 31 MO), Tumor Site: Type of Lesion: LUNG: ALVEOLAR/BRONCHIOLAR ADENOMA, ADENOCARCINOMA, SQUAMOUS CELL CARCINOMA active; positive | Species: RAT, Strain/Sex: WISTAR/MALE, Route: INHALATION, Dose: 0, 30 UG/M3 DUST 22 HR/D 7 D/WK FOR 18 MO MAINTAINED ON ZN REDUCED DIET (24 PPM) FOR STUDY DURATION (STUDY DURATION: 29, Tumor Site: Type of Lesion: LUNG: ALVEOLAR/BRONCHIOLAR ADENOMA, ADENOCARCINOMA, SQUAMOUS CELL CARCINOMA active; positive | Species: RAT, Strain/Sex: WISTAR/MALE, Route: INHALATION, Dose: 0, 30 UG/M3 FUME 22 HR/D 7 D/WK FOR 18 MO (STUDY DURATION: 31 MO), Tumor Site: Type of Lesion: LUNG: ALVEOLAR/BRONCHIOLAR ADENOMA, ADENOCARCINOMA active; positive | Species: RAT, Strain/Sex: WISTAR/MALE, Route: INHALATION, Dose: 0, 30 UG/M3 OF CADMIUM OXIDE DUST 22 HR/D 7 D/WK FOR 18 MO (STUDY DURATION: 29 MO), Tumor Site: Type of Lesion: LUNG: ALVEOLAR/BRONCHIOLAR ADENOMA, ADENOCARCINOMA active; positive | Species: RAT, Strain/Sex: WISTAR/MALE, Route: INHALATION, Dose: 0, 30 UG/M3 OF CADMIUM OXIDE DUST 22 HR/D 7 D/WK FOR 18 MO (STUDY DURATION: 31 MO), Tumor Site: Type of Lesion: LUNG: ALVEOLAR/BRONCHIOLAR ADENOMA, ADENOCARCINOMA, SQUAMOUS CELL CARCINOMA active; positive | Species: RAT, Strain/Sex: WISTAR/MALE, Route: INHALATION, Dose: 0, 90 UG/M3 CADMIUM OXIDE DUST 22 HR/D 7 D/WK FOR 7 MO (STUDY DURATION: 31 MO), Tumor Site: Type of Lesion: LUNG: ADENOMA OR ADENOCARCINOMA OR SQUAMOUS CELL TUMOR active; positive | Species: RAT, Strain/Sex: WISTAR/MALE, Route: INHALATION, Dose: 0, 90 UG/M3 CADMIUM OXIDE DUST 22 HR/D 7 D/WK FOR 7 MO (STUDY DURATION: 31 MO), Tumor Site: Type of Lesion: LUNG: TUMOR active; positive | Species: RAT, Strain/Sex: WISTAR/MALE, Route: INHALATION, Dose: 0, 90 UG/M3 CADMIUM OXIDE DUST DISCONTINOUS EXPOSURE FOR 40 HR/WK FOR 6 MO (STUDY DURATION: 31 MO), Tumor Site: Type of Lesion: LUNG: TUMOR active; positive | Species: RAT, Strain/Sex: WISTAR/MALE, Route: INHALATION, Dose: 0, 90 UG/M3 DUST 8 HR/D 5 D/WK FOR 6 MO (STUDY DURATION: 31 MO), Tumor Site: Type of Lesion: LUNG: ALVEOLAR/BRONCHIOLAR ADENOMA, ADENOCARCINOMA, SQUAMOUS CELL CARCINOMA active; positive | Species: RAT, Strain/Sex: WISTAR/MALE, Route: INHALATION, Dose: 0, 90 UG/M3 DUST 22 HR/D 7 D/WK FOR 7 MO (STUDY DURATION: 31 MO), Tumor Site: Type of Lesion: LUNG: ALVEOLAR/BRONCHIOLAR ADENOMA, ADENOCARCINOMA active; positive | Species: RAT, Strain/Sex: WISTAR/MALE, Route: INHALATION, Dose: 0, 90 UG/M3 OF CADMIUM OXIDE DUST 22 HR/D 7 D/WK FOR 7 MO (STUDY DURATION: 31 MO), Tumor Site: Type of Lesion: LUNG: ALVEOLAR/BRONCHIOLAR ADENOMA, ADENOCARCINOMA active; positive
inactive: Species: HAMSTER, Strain/Sex: SYRIAN/MALE, Route: INHALATION, Dose: 0, 10 UG/M3 19 HR/D 5 D/WK FOR 65 WK FOR A TOTAL CADMIUM DOSE OF 0, 63 MG/M3 (STUDY DURATION: 113 WK), Dose: 0, 10 UG/M3 19 HR/D 5 D/WK FOR 65 WK FOR A TOTAL CADMIUM DOSE OF 0, 63 MG/M3 (STUDY DURATION: 113 WK) inactive; negative | Species: HAMSTER, Strain/Sex: SYRIAN/MALE, Route: INHALATION, Dose: 0, 90 UG/M3 8 HR/D 5 D/WK FOR 65 WK FOR A TOTAL CADMIUM DOSE OF 0, 216 MG/M3 (STUDY DURATION: 113 WK), Dose: 0, 90 UG/M3 8 HR/D 5 D/WK FOR 65 WK FOR A TOTAL CADMIUM DOSE OF 0, 216 MG/M3 (STUDY DURATION: 113 WK) inactive; negative | Species: HAMSTER, Strain/Sex: SYRIAN/MALE, Route: INHALATION, Dose: 0, 270 UG/M3 8 HR/D 5 D/WK FOR 53 WK FOR A TOTAL CADMIUM DOSE OF 0, 522 MG/M3 (STUDY DURATION: 70 WK), Dose: 0, 270 UG/M3 8 HR/D 5 D/WK FOR 53 WK FOR A TOTAL CADMIUM DOSE OF 0, 522 MG/M3 (STUDY DURATION: 70 WK) inactive; negative | Species: RAT, Strain/Sex: WISTAR/FEMALE, Route: INHALATION, Dose: 0, 30 UG/M3 8 HR/D,5D/WK FOR 18 MO (STUDY DURATION: 18 MO) inactive; negative | Species: RAT, Strain/Sex: WISTAR/FEMALE, Route: INHALATION, Dose: 0, 90 UG/M3 OF CADMIUM OXIDE DUST 40 HR/WK FOR 6 MO (STUDY DURATION: 31 MO) inactive; negative | Species: RAT, Strain/Sex: WISTAR/MALE, Route: INHALATION, Dose: 0, 10 UG/M3 CADMIUM OXIDE FUME 22 HR/D 7 D/WK FOR 18 MO (STUDY DURATION: 31 MO) inactive; negative | Species: RAT, Strain/Sex: WISTAR/MALE, Route: INHALATION, Dose: 0, 10 UG/M3 FUME 22 HR/D 7 D/WK FOR 18 MO (STUDY DURATION: 31 MO) inactive; negative | Species: RAT, Strain/Sex: WISTAR/MALE, Route: INHALATION, Dose: 0, 10 UG/M3 OF CADMIUM OXIDE FUME 22 HR/D 7 D/WK FOR 18 MO (STUDY DURATION: 31 MO) inactive; negative | Species: RAT, Strain/Sex: WISTAR/MALE, Route: INHALATION, Dose: 0, 30 UG/M3 OF CADMIUM OXIDE FUME 22 HR/D 7 D/WK FOR 18 MO (STUDY DURATION: 31 MO) inactive; negative | Species: RAT, Strain/Sex: WISTAR/MALE, Route: INHALATION, Dose: 0, 90 UG/M3, 8 HR/D, 5D/WK FOR 7.1 MO (STUDY DURATION: 7.1 MO) inactive; negative | Species: RAT, Strain/Sex: WISTAR/MALE, Route: INHALATION, Dose: 0, 90 UG/M3 OF CADMIUM OXIDE DUST 40 HR/WK FOR 6 MO (STUDY DURATION: 31 MO) inactive; negative
